This passage reports RLU - background results from EP1988087A1, “Novel 5-cyano-prostacyclin derivatives and their use as agents for the treatment of autoimmune diseases” (Bayer Schering Pharma Aktiengesellschaft, priority 2007, dated 2008).

This test addresses EP4 receptor (Homo sapiens, UniProt P35408). The test can be described thus: cAMP accumulation assay in cells expressing EP4 (Biological Example 1, diol derivative). Particulars: cAMP luminescence, mean of triplicate. It counts as cell-based. As for the experimental part: Commercial cAMP accumulation assays are typically competitive immunoassays in which free cAMP from cell lysates competes for antibody binding against a "labeled" cAMP molecule. This positive signal is generated in direct proportion to the amount of free cAMP. In our assays cAMP standards and samples are pipetted into the wells of a microplate. An antibody specific cAMP is added to the wells. A substrate is added to the wells and luminescence develops in proportion to the amount of cAMP which accumulated during treatment of cells which express the EP4 receptor with standards and samples. The intensity of the luminescence is measured in a luminometer.
The response of the EP4 expressing cells treated with the diol derivative is compared to Nileprost. Results shown are the mean of triplicate determinations.
In general terms: cAMP levels reflect the balance of adenylyl cyclase and phosphodiesterase activity.

EP4 receptor, sequence (P35408 whole entry): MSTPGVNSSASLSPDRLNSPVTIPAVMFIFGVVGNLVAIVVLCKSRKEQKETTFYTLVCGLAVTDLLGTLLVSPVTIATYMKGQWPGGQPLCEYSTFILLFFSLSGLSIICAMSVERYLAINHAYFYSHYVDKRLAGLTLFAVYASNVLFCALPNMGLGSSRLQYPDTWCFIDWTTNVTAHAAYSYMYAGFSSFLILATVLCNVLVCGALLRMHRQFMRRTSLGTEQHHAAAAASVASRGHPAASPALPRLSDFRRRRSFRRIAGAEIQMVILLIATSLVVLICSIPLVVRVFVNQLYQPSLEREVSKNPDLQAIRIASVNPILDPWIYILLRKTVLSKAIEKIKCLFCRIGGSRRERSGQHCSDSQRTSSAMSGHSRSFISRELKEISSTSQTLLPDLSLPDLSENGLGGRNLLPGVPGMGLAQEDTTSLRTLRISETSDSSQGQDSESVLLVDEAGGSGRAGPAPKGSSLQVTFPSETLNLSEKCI

On to `CCCCC(C)[C@H](O)/C=C/[C@@H]1[C@H]2C/C(=C(\C#N)CCCC(=O)O)O[C@H]2C[C@H]1O` (stereo partly drawn) [Nileprost, 5-cyano-16-methylprostacyclin], for which the RLU - background (compound 0.010 nM) came out at 0 RLU; the RLU - background (compound 0.152 nM) came to 850786 RLU; the RLU - background (compound 0.457 nM) turned out to be 1291900 RLU; the RLU - background (compound 1.372 nM) turned out to be 1521826 RLU; the RLU - background (compound 4.115 nM) is on record as 1626762 RLU; the RLU - background (compound 12.346 nM) is on record as 1589698 RLU. Moreover, the RLU - background amounted to 1312998 RLU (compound 37.037 nM); 1258626 RLU (compound 111.111 nM); 1648306 RLU (compound 333.333 nM); 1635488 RLU (compound 1000.000 nM); 1625442 RLU (compound 3000.000 nM); 1599712 RLU (compound 9000.000 nM).
